Reference: patent publication US20240376094A2, “SELECTIVE BCL-XL PROTAC COMPOUNDS AND METHODS OF USE” (Les Laboratoires Servier, priority 2021, published 2024)

Tests used:
MOLT-4 cells = test: MOLT-4 cell viability, CTG assay; assay type: cell-based; conditions: Homo sapiens, MOLT-4, 48 h
From the text: The MTT colorimetric assay is based on the mitochondrial reduction of tetrazolium salt by living cells. The viable cell number is proportional to the production of formazan salts, which can be read spectrophotometrically at 540 nm. The CTG luminescent assay (CellTiter GLO, Promega) is based on a reagent which lyses cells and measures total adenosine triphosphate (ATP) content. The viable cell number is proportional to the production of ATP.
MOLT-4 cells were purchased from ATCC and cultivated in RPMI 1640 supplemented with 10% heat inactivated fetal bovine serum, penicillin (100 IU/mi), streptomycin (100 μg/ml) and L-glutamine (2 mM). Cells were cultured at 37° C. in a humidified atmosphere containing 5% […].
For CTG assay, cells were seeded in 384 microwell plates (40 μL per well) and exposed to the compounds for 48 h (11-point serial dilution with 5-fold factor, triplicates). At the end of incubation time, 40 μL of CTG solution were added per well. Wells were mixed thoroughly, and plates were incubated at room temperature for 10 minutes to stabilize luminescent signals prior to reading using a luminescence reader (PHERAStar FSX Reader, BMG Labtech).
IC50, were calculated using standard four-parametric curve fitting. IC50 is defined as the compound concentration at which the MTT or CTG signal is reduced to 50% of that measured for the control. Results shown in Table 14 represent the mean of at least 2 independent experiments.

Bcl-xL = target: T1, Bcl-xL (Homo sapiens, UniProt Q07817); test: HCT116 Bcl-xL degradation, capillary-based immunoassay (WES); assay type: cell-based; conditions: for DC50: HCT116, 24 h, 9-point serial dilution
T1 construct: Measured levels of Bcl-xL protein of HCT116 cells treated with the tested compounds; host or cells: HCT116
Description: HCT116 cells were purchased from ATCC and cultivated in RPMI 1640 supplemented with 10% heat inactivated fetal bovine serum, penicillin (100 IU/mi), streptomycin (100 μg/ml) and L-glutamine (2 mM). Cells were cultured at 37° C. in a humidified atmosphere containing 5% CO2. Cells were seeded in 96 microwell plates, 24 h later cells were treated with compounds (2-point 10/100 nM and/or 9-point serial dilution to determine DC50; quadruplicates) during 24 h and harvested in lysis buffer containing 10 mM Hepes (pH 7.5), 150 mM KCl, 5 mM MgCl2, 1 mM EDTA, 0.4% TritonX100, protease and phosphatase inhibitors cocktails (Calbiochem).
Protein concentration in the supernatants was determined using the Pierce BCA protein assay kit (Thermo Fisher Scientific). Lysates (1.5 μg/μL) were analyzed using an automated capillary electrophoresis WES system with 2-40 kDa Wes Separation Module (25 capillary cartridges, Proteinsimple), in accordance with the manufacturer's protocols. Antibodies against the following proteins were used: Bcl-xL (#2764, Cell Signaling Technology, 1:50) and cofilin (#5175, Cell Signaling Technology, 1:1000). Signals were detected with an HRP-conjugated secondary anti-rabbit antibody (#042-206, Proteinsimple) and were quantified using Compass software (version 4.0, Proteinsimple).
Bcl-xL level was calculated by normalizing Bcl-xL values to cofilin and expressed as a percentage of the normalized value of the untreated cells. DC50 were calculated using standard four-parametric curve fitting. DC50 is defined as the compound concentration at which Bcl-xL is reduced to 50% of that measured for the control. Measured levels of Bcl-xL protein of HCT116 cells treated with the tested compounds at 2-point 10 nM/100 nM and/or 9-point for DC50 determination are shown in Table 15.

T1 sequence (Q07817 whole entry): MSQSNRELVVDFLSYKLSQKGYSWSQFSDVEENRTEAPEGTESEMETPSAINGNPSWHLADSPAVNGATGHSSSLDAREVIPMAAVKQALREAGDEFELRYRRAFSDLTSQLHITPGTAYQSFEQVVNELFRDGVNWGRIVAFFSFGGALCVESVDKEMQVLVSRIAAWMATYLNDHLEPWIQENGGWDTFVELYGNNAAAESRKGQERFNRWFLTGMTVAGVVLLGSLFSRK

SMILES | IC50 (MOLT-4 cells) | DC50 (Bcl-xL) | remaining activity at 0.01 µM (Bcl-xL; HCT-116, HCT116, 10 nM, 24 h, % of untreated cells) | remaining activity at 0.1 µM (Bcl-xL; HCT-116, HCT116, 100 nM, 24 h, % of untreated cells)
CN[C@@H](C)C(=O)N[C@H](C(=O)N1CCC[C@H]1c1nc(C(=O)c2cccc(OCCCCCCN(C)CCOC34CC5(C)CC(C)(CC(Cn6ncc(-c7ccc(N8CCCc9c8nnc(Nc8nc%10ccccc%10s8)c9C)nc7C(=O)O)c6C)(C5)C3)C4)c2)cs1)C1CCCCC1 [Example 102, 6-[3-(1,3-benzothiazol-2-ylamino)-4-methyl-6,7-dihydro-5H-pyrido[2,3-c]pyridazin-8-yl]-3-[1-[[3-[2-[6-[3-[2-[(2S)-1-[(2S)-2-cyclohexyl-2-[[(2S)-2-(methylamino)propanoyl]amino]acetyl]pyrrolidin-2-yl]thiazole-4-carbonyl]phenoxy]hexyl-methyl-amino]ethoxy]-5,7-dimethyl-1-adamantyl]methyl]-5-methyl-pyrazol-4-yl]pyridine-2-carboxylic acid] | 4.07 nM | 0.448 nM | – | –
Cc1c(Nc2nc3ccccc3s2)nnc2c1CCCN2c1ccc(-c2cnn(CC34CC5(C)CC(C)(C3)CC(OCCN(C)CCCCCOc3ccc6c(c3)C(=O)N(C3CCC(=O)NC3=O)C6=O)(C5)C4)c2C)c(C(=O)O)n1 (stereo not drawn) [Example 107, 6-[3-(1,3-benzothiazol-2-ylamino)-4-methyl-6,7-dihydro-5H-pyrido[2,3-c]pyridazin-8-yl]-3-[1-[[3-[2-[5-[2-(2,6-dioxo-3-piperidyl)-1,3-dioxo-isoindolin-5-yl]oxypentyl-methyl-amino]ethoxy]-5,7-dimethyl-1-adamantyl]methyl]-5-methyl-pyrazol-4-yl]pyridine-2-carboxylic acid] | 4.72 nM | 0.739 nM | – | –
Cc1c(Nc2nc3ccccc3s2)nnc2c1CCCN2c1ccc(-c2cnn(CC34CC5(C)CC(C)(C3)CC(OCCN(C)CCCCCCCCCCCCCOc3ccc6c(c3)C(=O)N(C3CCC(=O)NC3=O)C6=O)(C5)C4)c2C)c(C(=O)O)n1 (stereo not drawn) [Example 115, 6-[3-(1,3-benzothiazol-2-ylamino)-4-methyl-6,7-dihydro-5H-pyrido[2,3-c]pyridazin-8-yl]-3-[1-[[3-[2-[13-[2-(2,6-dioxo-3-piperidyl)-1,3-dioxo-isoindolin-5-yl]oxytridecyl-methyl-amino]ethoxy]-5,7-dimethyl-1-adamantyl]methyl]-5-methyl-pyrazol-4-yl]pyridine-2-carboxylic acid] | 3.93 nM | 0.266 nM | – | –
Cc1c(Nc2nc3ccccc3s2)nnc2c1CCCN2c1ccc(-c2cnn(CC34CC5(C)CC(C)(C3)CC(OCCN(C)CCOCCOCCOCCOCCNc3cccc6c3C(=O)N(C3CCC(=O)NC3=O)C6=O)(C5)C4)c2C)c(C(=O)O)n1 (stereo not drawn) [Example 132, 6-[3-(1,3-benzothiazol-2-ylamino)-4-methyl-6,7-dihydro-5H-pyrido[2,3-c]pyridazin-8-yl]-3-[1-[[3-[2-[2-[2-[2-[2-[2-[[2-(2,6-dioxo-3-piperidyl)-1,3-dioxo-isoindolin-4-yl]amino]ethoxy]ethoxy]ethoxy]ethoxy]ethyl-methyl-amino]ethoxy]-5,7-dimethyl-1-adamantyl]methyl]-5-methyl-pyrazol-4-yl]pyridine-2-carboxylic acid] | 26.6 nM | – | 108% | 103%
Cc1c(Nc2nc3ccccc3s2)nnc2c1CCCN2c1ccc(-c2cnn(CC34CC5(C)CC(C)(C3)CC(OCCN(C)CCCCCCOc3cccc6c3C(=O)N(C3CCC(=O)NC3=O)C6=O)(C5)C4)c2C)c(C(=O)O)n1 (stereo not drawn) [Example 141, 6-[3-(1,3-benzothiazol-2-ylamino)-4-methyl-6,7-dihydro-5H-pyrido[2,3-c]pyridazin-8-yl]-3-[1-[[3-[2-[6-[2-(2,6-dioxo-3-piperidyl)-1,3-dioxo-isoindolin-4-yl]oxyhexyl-methyl-amino]ethoxy]-5,7-dimethyl-1-adamantyl]methyl]-5-methyl-pyrazol-4-yl]pyridine-2-carboxylic acid] | 10.4 nM | > 316 nM | – | –
Cc1c(Nc2nc3ccccc3s2)nnc2c1CCCN2c1ccc(-c2cnn(CC34CC5(C)CC(C)(C3)CC(OCCN(C)CCCCCCCCCCCCCCOc3ccc6c(c3)C(=O)N(C3CCC(=O)NC3=O)C6=O)(C5)C4)c2C)c(C(=O)O)n1 (stereo not drawn) [Example 142, 6-[3-(1,3-benzothiazol-2-ylamino)-4-methyl-6,7-dihydro-5H-pyrido[2,3-c]pyridazin-8-yl]-3-[1-[[3-[2-[14-[2-(2,6-dioxo-3-piperidyl)-1,3-dioxo-isoindolin-5-yl]oxytetradecyl-methyl-amino]ethoxy]-5,7-dimethyl-1-adamantyl]methyl]-5-methyl-pyrazol-4-yl]pyridine-2-carboxylic acid] | 3.76 nM | 0.341 nM | – | –
Cc1c(Nc2nc3ccccc3s2)nnc2c1CCCN2c1ccc(-c2cnn(CC34CC5(C)CC(C)(C3)CC(OCCN(C)CCCCCCCCOc3cccc6c3C(=O)N(C3CCC(=O)NC3=O)C6=O)(C5)C4)c2C)c(C(=O)O)n1 (stereo not drawn) [Example 143, 6-[3-(1,3-benzothiazol-2-ylamino)-4-methyl-6,7-dihydro-5H-pyrido[2,3-c]pyridazin-8-yl]-3-[1-[[3-[2-[8-[2-(2,6-dioxo-3-piperidyl)-1,3-dioxo-isoindolin-4-yl]oxyoctyl-methyl-amino]ethoxy]-5,7-dimethyl-1-adamantyl]methyl]-5-methyl-pyrazol-4-yl]pyridine-2-carboxylic acid] | 5.28 nM | > 316 nM | – | –

Stronger by IC50 (MOLT-4 cells), values ahead:

IC50 (MOLT-4 cells) | DC50 (Bcl-xL) | remaining activity at 0.01 µM (Bcl-xL; HCT-116, HCT116, 10 nM, 24 h, % of untreated cells) | remaining activity at 0.1 µM (Bcl-xL; HCT-116, HCT116, 100 nM, 24 h, % of untreated cells) | SMILES
1.74 nM | 0.0184 nM | – | – | Cc1c(Nc2nc3ccccc3s2)nnc2c1CCCN2c1ccc(-c2cnn(CC34CC5(C)CC(C)(C3)CC(OCCN(C)CCCCCCCCCOc3ccc6c(c3)C(=O)N(C3CCC(=O)NC3=O)C6=O)(C5)C4)c2C)c(C(=O)O)n1 (stereo not drawn) [Example 104, 6-[3-(1,3-benzothiazol-2-ylamino)-4-methyl-6,7-dihydro-5H-pyrido[2,3-c]pyridazin-8-yl]-3-[1-[[3-[2-[9-[2-(2,6-dioxo-3-piperidyl)-1,3-dioxo-isoindolin-5-yl]oxynonyl-methyl-amino]ethoxy]-5,7-dimethyl-1-adamantyl]methyl]-5-methyl-pyrazol-4-yl]pyridine-2-carboxylic acid]
1.75 nM | 0.0447 nM | – | – | Cc1c(Nc2nc3ccccc3s2)nnc2c1CCCN2c1ccc(-c2cnn(CC34CC5(C)CC(C)(C3)CC(OCCN(C)CCCCCCCCCCCOc3ccc6c(c3)C(=O)N(C3CCC(=O)NC3=O)C6=O)(C5)C4)c2C)c(C(=O)O)n1 (stereo not drawn) [Example 105, 6-[3-(1,3-benzothiazol-2-ylamino)-4-methyl-6,7-dihydro-5H-pyrido[2,3-c]pyridazin-8-yl]-3-[1-[[3-[2-[11-[2-(2,6-dioxo-3-piperidyl)-1,3-dioxo-isoindolin-5-yl]oxyundecyl-methyl-amino]ethoxy]-5,7-dimethyl-1-adamantyl]methyl]-5-methyl-pyrazol-4-yl]pyridine-2-carboxylic acid]
2.63 nM | 0.211 nM | – | – | Cc1c(Nc2nc3ccccc3s2)nnc2c1CCCN2c1ccc(-c2cnn(CC34CC5(C)CC(C)(C3)CC(OCCN(C)CCCCCCCOc3ccc6c(c3)C(=O)N(C3CCC(=O)NC3=O)C6=O)(C5)C4)c2C)c(C(=O)O)n1 (stereo not drawn) [Example 106, 6-[3-(1,3-benzothiazol-2-ylamino)-4-methyl-6,7-dihydro-5H-pyrido[2,3-c]pyridazin-8-yl]-3-[1-[[3-[2-[7-[2-(2,6-dioxo-3-piperidyl)-1,3-dioxo-isoindolin-5-yl]oxyheptyl-methyl-amino]ethoxy]-5,7-dimethyl-1-adamantyl]methyl]-5-methyl-pyrazol-4-yl]pyridine-2-carboxylic acid]
